Source: patent US20260355166A1, “2-SUBSTITUTED PIPERIDINE DERIVATIVES, PREPARATION METHODS AND MEDICINAL USES THEREOF” (JIANGSU HANSOH PHARMACEUTICAL GROUP CO., LTD., priority 2022, published 2026)

Assays:
human Factor B [1] = target: T1, human Factor B (Homo sapiens, UniProt P00751); experiment: Target Residence Time of Factor B Inhibitors Determined by Surface Plasmon Resonance (SPR); type: binding; conditions: for Kd: immobilized recombinant human Factor B catalytic domain, room temperature; for t1/2 (binding half-life): t1/2=ln 2/kd; for residence time: tR=1/kd
T1 construct: Recombinant human Factor B catalytic domain (a.a. 470-764, C-terminal his-tagged, produced in-house); made in house
T1 sequence (P00751 470-764): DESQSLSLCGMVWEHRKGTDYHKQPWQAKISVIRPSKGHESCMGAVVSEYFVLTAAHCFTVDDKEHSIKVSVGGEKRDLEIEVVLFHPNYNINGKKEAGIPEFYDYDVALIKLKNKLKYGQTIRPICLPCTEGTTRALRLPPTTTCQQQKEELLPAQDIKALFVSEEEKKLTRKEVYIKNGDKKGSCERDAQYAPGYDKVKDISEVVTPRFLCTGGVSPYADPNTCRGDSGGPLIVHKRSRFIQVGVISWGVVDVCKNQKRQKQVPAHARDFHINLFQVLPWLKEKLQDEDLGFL
Description: • 1. Recombinant human Factor B catalytic domain (a. a. 470-764, C-terminal his-tagged, produced in-house) • 2. PBS-P+ Buffer 10× (Cytiva, CAT #28995084) • 3. Series S Sensor Chip NTA (Cytiva, CAT #BR100532) • 4. Amine Coupling Kit (Cytiva, CAT #BR100050) • 5. DMSO (Millipore Sigma, CAT #34869-1L) • 6. Greiner 96 well plates, polypropylene (Sigma-Aldrich, CAT #M7310-100EA) • 7. Microplate Foil, 96-well (Cytiva, CAT #28975816) • 8. Biacore 8k (Cytiva)
Biacore 8k instrument was primed using 1×PBS-P+ buffer before docking a Cytiva NTA chip. Recombinant human Factor B catalytic domain were immobilized on a NTA chip to a level of about 5000 resonance units (RU) using 1×PBS-P+ buffer [[…] phosphate buffer with 2.7 mM KCl, 137 mM NaCl, and 0.05% (v/v) Tween-20]. The protein ligand was further crosslinked to sensorchip surface by amine coupling kit. Immobilization and binding experiment were performed at room temperature.
After changing buffer to 1×PBS-P+ buffer with 2% (v/v) DMSO, a pre-run was performed for a period of at least 30 min at a flow rate of 30 μl/min to obtain a stable surface. The kinetic constants of the compounds were determined by single-cycle kinetics with six consecutive injections (or multi-cycle kinetics with eight consecutive injections) with an increasing compound concentration in ranges of 0.8-200 nM, 12.5-400 nM, 4.1-1,000 nM or 41-10,000 nM depending on the potency. Single-cycle kinetics experiments were performed with an association time of 60 s per concentration and a dissociation time of 300 s (or a dissociation time of 120 s for multi-cycle kinetics experiments). A flow rate of 30 μl/min was used. A blank run with the same conditions was performed before the compound was injected.
The SPR sensorgrams were analyzed with Biacore Insight Evaluation Software by using a method of double referencing. The resulting curve was fitted with a 1:1 binding model. The kinetic constants (ka, kd, KD) of replicates were averaged. Residence time (tR) was calculated from the dissociation constant kd with the formula tR=1/kd. Binding half-life (t1/2) was calculated from the dissociation constant kd with the formula t1/2=ln 2/kd

[2] = tested on: rabbit reticulocyte hemolysis; experiment: Inhibition of AP Dependent Hemolysis (rabbit cells in human serum); type: cell-based, human serum; rabbit erythrocytes; conditions: Oryctolagus cuniculus, GVB buffer with MgCl2 and EGTA, 37 °C, OD405
Procedure: To quantify the inhibitory effects of compounds on the hemolytic activity of the alternative complement pathway, the AP hemolytic assay was employed. Test concentration of the compounds started at 100 μM and were diluted 3-fold in DMSO to produce 8-11 concentration points, with each concentration tested in technical triplicates. Human serum was added to rabbit reticulocytes in a solution of GVB buffer with MgCl2 and EGTA. After a period of incubation at 37 °C, spontaneous lysis of rabbit erythrocytes due to serum AP complement activity was quantified using OD405 absorbance, measured using the i3x plate reader.

[3] = Pharmacokinetic Studies in Rats; type: in vivo, brown Norway rats; conditions: plasma, rat
Procedure: Three-month-old brown Norway rats were administered the Example compound intravenously (0.5 mg/kg dose, formulation: 10% 1,2-Propanediol+25% (20% solutol HS 15 in water)+65% phosphate buffered saline at 0.1 mg/mL) and via oral gavage at 2 mg/kg dose as a clear solution (0.5% MC+0.5% Tween 80 in water at 1 mg/mL). Plasma was collected from rats per time point at 0.25, 0.5, 1, 6, and 24 h after administration. The concentrations of the test article were measured in plasma by HPLC-MS/MS, two individual plasma samples at each time point. Chromatographic separation was carried out on Waters BEH C18 Column (2.1×50 mm, 1.7 μm) column (MAC-MOD Analytical, Chadds Ford, PA), using a gradient elution method with water and acetonitrile, both containing 0.025% formic acid-1 mM NH4OAc. Mass spectrometric measurements in positive electrospray ionization were directed at quantifying the mass transition with [M+H]^+ as the precursor ion on API6500, triple quadruple mass spectrometer (Sciex, Framingham, MA). The relevant pharmacokinetic parameters were estimated using noncompartmental methods using WinNonlin (Enterprise, version 8.2).

[4] = tested on: MAC (Membrane Attack Complex) formation; experiment: Inhibition of Human MAC Deposition (AP deposition assay, LPS activation, ELISA of C5b-9); type: biochemical; conditions: human serum, LPS coated plates, GVB buffer with MgCl2 and EGTA, C5b-9 detection
Procedure: To quantify the inhibitory effects of compounds on complement protein deposition following LPS activation of the alternative complement pathway, the AP deposition assay was employed. Test concentration of the compounds started at 11.1 μM or 3.70 µM and were diluted 3-fold in DMSO to produce 8 concentration points, with each concentration tested in technical triplicates. Human serum was combined with test compounds in GVB buffer containing 5 mM MgCl2 10 mM EGTA, and was added to LPS coated black Maxisorp plates. After a period of incubation, the plate was inverted, and ELISA detection of complement proteins bound to LPS was performed. A primary antibody that detected human C5b-9 was used, followed by a compatible HRP conjugated secondary antibody. Peroxidase activity was detected using the Quantablu Fluorogenic Peroxidase substrate kit and fluorescence was measured at 340 nm/435 nm using the i3x plate reader to determine the quantity of alternative pathway complement protein deposition.

human Factor B [5] = target: T1, human Factor B; experiment: Factor B Binding Assay by TR-FRET; conditions: recombinant human Factor B catalytic domain 10 nM, 100 nM tracer, 1 h
Procedure: • 1. Recombinant human Factor B catalytic domain (a.a. 470-764, C-terminal his-tagged, produced in-house) • 2. 5× Kinase Buffer A (Thermo Fisher, CAT #PV3189) • 3. LANCE Eu-W1024 Anti-6×His Antibody (PerkinElmer, CAT #AD0401) • 4. Probe (TRFRET_tool 2, reported in WO 2015/009616)
[drawing 252] • 5. DMSO (Thermo Fisher Scientific) • 6. Compounds-10 mM stock in DMSO • 7. Victor Nivo multimode plate reader (PerkinElmer) • 8. OptiPlate-384, white opaque 384-well microplate (PerkinElmer, CAT #6007290)
Factor B binding affinity of each compound tested was determined using a time-resolved fluorescence resonance energy transfer (TR-FRET) technology. 10 nM recombinant his-tagged Factor B catalytic domain, varying concentrations of inhibitors, 4 nM LANCE Eu-W1024 Anti-6×His Antibody and 100 nM TRFRET_tool2 tracer was incubated in 1× Kinase Buffer A for 1 h. Measurement was performed in a reaction volume of 15 μL by adding 5 μL of the test compound, 5 μL of Factor B/antibody mixture and 5 μL of tracer into white opaque 384-well assay plates. The TR-FRET signal was read on a plate reader with an excitation wavelength of 340 nm and detection wavelengths of 615 and 665 nm. Binding affinity was determined for each compound by measuring TR-FRET signal at various concentrations of compound and plotting the relative fluorescence Emission Ratio (665 nm/615 nm) against the inhibitor concentration to estimate the IC50 from [Compound] vs Emission Ratio using the four parameters dose-response inhibition curve with a variable slope model in GraphPad Prism.
The binding affinity to recombinant Factor B catalytic domain of the compounds of the present invention was determined by the above assay, and IC50 values (nM) are shown in the following table.

SMILES | Kd (human Factor B [1]) [µM] | t1/2 (binding half-life) (human Factor B [1]) [min] | residence time (human Factor B [1]) [min] | IC50 [2] [µM] | bioavailability ([3]; 2 mg/kg, 0.5 mpk IV and 2 mpk PO) [%] | clearance ([3]; 0.5 mg/kg IV, read-out: 0.5 MPK IV arm CL) [L/h/kg] | half-life ([3]; 2 mg/kg PO, read-out: T½ (h) - 2 MPK PO (converted)) [h] | AUC(0-t) ([3]; 0.5 mpk IV and 2 mpk PO (arm not printed in this column head), read-out: Plasma AUC0-last) [µM·h] | IC50 [4] [µM] | IC50 (human Factor B [5]) [µM]
COc1cc(C)c2[nH]ccc2c1CN1CCC2(CC(F)(F)C2)CC12CCc1cc(C(=O)O)ccc12 (single isomer, unassigned) [Example 1 isomer 1, 3,3-difluoro-1′-((5-methoxy-7-methyl-1H-indol-4-yl)methyl)-2″,3″-dihydrodispiro[cyclobutane-1,4′-piperidine-2′,1″-indene]-5″-carboxylic acid] | 0.0009 | 11.8 | 16.9 | 0.22 | 56 | 0.078 | 8.5 | 25.4 | 0.147 | 0.00105
COc1cc(C)c2[nH]ccc2c1CN1CCC2(CC(F)(F)C2)C[C@]12CCCc1cc(C(=O)O)ccc12 (single isomer, unassigned) [Example 2 isomer 1] | 0.0022 | 13.6 | 19.6 | 0.283 | – | – | – | – | 0.129 | 0.00201
COc1cc(C)c2[nH]ccc2c1CN1CCC2(CC(F)(F)C2)C[C@@]1(C)c1ccc(C(=O)O)cc1 (single isomer, unassigned) [Example 3 isomer 1] | 0.00173 | 12.6 | 18.2 | 0.252 | – | – | – | – | 0.193 | 0.00114
